Data reported in patent publication US20170198044A1, “COMPOSITIONS AND METHODS FOR SAFE AND EFFECTIVE IMMUNOTHERAPY” (TheraMAB LLC, priority 2014, published 2017).

Columns and labels:
Type in all cases: cell-based, human
[1] = system: anti-CD3 stimulated CFSE-labeled CD4+ T cells; experiment: Treg-cell suppression assay; settings: Enbrel during Treg-cell expansion, RA patient
[2] = system: PBMC samples taken from RA patients; experiment: In vitro RESTORE system: cytokine production by PBMC samples from RA patients; settings: OKT3 1 μg/ml
Description: The purpose of the RESTORE method application was definition of safety parameters of the use of TAB08 antibody and the possibility of participation of RA patients in clinical trials, in particular:
To determine the levels of response of peripheral blood mononuclear cells of RA patients to various concentrations of TAB08, i.e. trace the dose-dependence of cytokine release by mononuclear cells exposed to TAB08 in vitro.
To determine the ability of methylprednisolone, which has an anti-inflammatory effect, to suppress TAB08-induced cytokine release.
(§1) PBMC were cultured in supplemented RPMI 1640 containing 10% AB-positive heat-inactivated human serum (Sigma) for two days at high cell density (HD; 1×10^7/ml) to allow tissue-like interactions. Cells were then harvested and cultured under standard conditions (1×10^6/ml) in 96 or 48-well flat-bottom tissue culture plates in a final volume of 0.2 or 0.6 ml in a humidified incubator at 37° C. with 5% CO2. Intracellular Ki67 staining was used to measure cell proliferation. For intracellular staining of Foxp3, Ki67 and CD4, cells were first surface stained, permeabilized with Fix/Perm (eBioscience), and stained with the appropriate antibodies diluted in Perm/Wash (eBioscience). FACS analysis was performed using a FACSCalibur flow cytometer (BD Biosciences). Data were analyzed using FlowJo software (TreeStar).

[3] = system: regulatory T cells; experiment: Regulatory T cells and Ki67+ Tregs in RESTORE system, PBMC samples from RA patients (Table 16)
Experimental: as §1

[4] = system: Treg cells; experiment: Treg-cell vs Tconv-cell expansion and proliferation in HD precultured PBMCs (flow cytometry, Ki67, CFSE); settings: 0.01 mM MP, TAB08 1 μg/mL
Experimental: Treg-cell (CD25^hiFoxp3^+) and activated Tconv-cell (CD25^loFoxp3^−) frequencies among gated CD4^+ T cells were then assessed by flow cytometry using a live light-scatter entrance gate. […] Treg-cell frequencies among CD4^+ T cells and absolute numbers of Treg cells were determined by flow cytometry after 5 days of culture. […] Treg-cell versus Tconv-cell expansion in CD25-depleted and nondepleted PBMC cultures was then assessed by flow cytometry, using a live light-scatter entrance gate followed by gates for CD4^+Foxp3^− (left dot plots) and CD4^+Foxp3^+ (right dot plots). […] Proliferation was assessed by, in Panel D, the expression of Ki67 and Panel E CFSE dilution. *denotes insufficient number of cells for evaluation. […]
Cell proliferation was measured from day 2 to 3 as radioactivity incorporated from [H^3] thymidine (1 μCi per well, Hartmann Analytic GmbH) into DNA, using a liquid scintillation counter (PerkinElmer). Results are expressed as counts per minute (cpm). […]
For phenotypic analysis, cells were stained with the appropriate antibodies for 20 min at 4° C., washed once with FACS buffer (PBS, 0.1% BSA, 0.2% NaN3), and fixed with 2% paraformaldehyde. […] Data were analyzed using FlowJo Version 9.4.11 software (TreeStar). Results are shown as log 10 fluorescence intensities. […]

Enbrel
effect on suppressive activity of TAB08-expanded Treg cells [1]: did not lead to further enhancement of suppressive activity

OKT3: Clinical grade OKT3 (Janssen-Cilag), anti-CD3 (anti-TCR) antibody used as stimulus
IL-2 production [2]: 0.00 pg/mL | % FoxP3+/CD4+ ([3]; Patient 0104, OKT3 1 μg_mL): 4.96% | % Ki67+/FoxP3+ CD4+ ([3]; Patient 0104, OKT3 1 μg_mL): 84.9% | % FoxP3+/CD4+ ([3]; Patient 0105, OKT3 1 μg_mL): 5.1% | % Ki67+/FoxP3+ CD4+ ([3]; Patient 0105, OKT3 1 μg_mL): 80.5% | % FoxP3+/CD4+ ([3]; Patient 0204, OKT3 1 μg_mL): 4.52% | % Ki67+/FoxP3+ CD4+ ([3]; Patient 0204, OKT3 1 μg_mL): 77.7% | % FoxP3+/CD4+ ([3]; Patient 0205, OKT3 1 μg_mL): 4.62% | % Ki67+/FoxP3+ CD4+ ([3]; Patient 0205, OKT3 1 μg_mL): 67.7% | % FoxP3+/CD4+ ([3]; Patient 0206, OKT3 1 ug_ml): 2.79% | % Ki67+/FoxP3+ CD4+ ([3]; Patient 0206, OKT3 1 ug_ml): 80.8%

C[C@H]1C[C@@H]2[C@H]([C@@H](O)C[C@@]3(C)[C@H]2CC[C@]3(O)C(=O)CO)[C@@]2(C)C=CC(=O)C=C12 [MP, methylprednisolone]
suppression of division of CD4+ Tconv cells (CFSE) [4]: ~80%
